According to US11524003B2, “Alpha-amino esters of hydroxypropylthiazolidine carboxamide derivative and salt form, crystal polymorph thereof” (ObsEva S.A., priority 2016, dated 2022):
“Also recorded” adds a separate entry of the source. Where a name gives a salt, the structure may show the parent alone. Read-outs that look alike come from different tables or passages of the source. Where a SMILES comes first, the peptide text is derived from it. Bridges are numbered along the chain shown (N, C = ends). [ ]: non-standard residue; d: D form. Orn = NCCC[C@H](N)C(=O)O; Mpa = O=C(O)CCS

How the values were obtained:
[1] = Moisture sorption/desorption and relative humidity stability of compound I salts; type: physicochemical; settings: for Hygroscopicity: moisture balance data, hydrochloride
Method: Moisture sorption/desorption (MB) data were collected on a VTI SGA-100 Vapor Sorption Analyzer. Sorption and desorption data were collected over a range of 5% to 95% relative humidity (RH) at 10% RH intervals under a nitrogen purge. Samples were not dried prior to analysis. Equilibrium criteria used for analysis were less than 0.0100% weight change in 5 minutes, with a maximum equilibration time of 3 hours if the weight criterion was not met. Data were not corrected for the initial moisture content of the samples. NaCl and PVP were used as calibration standards.

[2] = Aqueous solubility of compound I salts (FIG. 8); type: physicochemical; settings: water
[3] = test system: RU486-induced parturition; assay: RU486-induced preterm parturition in CD-1 mice
Method: (§1) Tocolytic effects were assessed by measuring the time from induction to delivery of the first pup for each mouse in the treatment and control cohorts, the time from time from induction to completion of delivery among all mice in each cohort, and viability of offspring among mice in each cohort. The inducers of preterm parturition used in this study were RU486 (also referred to as mifepristone), a steroidal antiprogestin that promotes cervical dilatation and provokes enhanced uterine contractility and sensitivity to prostaglandins, and lipopolysaccharide (LPS), a mediator of inflammation.
(§2) To induce labor at an early gestational age, a single dose of RU486 was administered to each mouse subcutaneously at 2.5 mg/kg (t=0). Mice treated with LPS received a single intraperitoneal injection of LPS at 2 mg/kg (t=0). Atosiban was administered to CD-1 mice by subcutaneous injection at 300 mg/kg at two distinct sites. These injections were performed at 5 hours (t=5) and 29 hours (t=29) following treatment with the inducing agent RU486 or LPS. […] Compound III was administered to CD-1 mice orally at either 10 mg/kg, 30 mg/kg, or 100 mg/kg at 5 hours (t=5), 19 hours (t=19), 29 hours (t=29), and 43 hours (t=43) following treatment with the inducing agent RU486 or LPS. […] The viability of pups delivered in each cohort was assessed by galenic hydrostatic pulmonary docimasy.

LPS-induced parturition = type: in vivo; settings: LPS-treated mice
Method: as §1, §2

[4] = nifedipine 5 mg/kg oral, compound III 10 mg/kg oral, alone or combined

## CC(C)[C@H](N)C(=O)OCC[C@H](NC(=O)[C@@H]1SCCN1S(=O)(=O)c1ccc(-c2ccccc2)cc1)c1ccc(F)cc1 [Compound III, (3S)-3-({[(2S)-3-(biphenyl-4-ylsulfonyl)-1,3-thiazolidin-2-yl]carbonyl}-amino)-3-(4-fluorophenyl)propyl L-valinate hydrochloride]
[1]
  Stability at elevated relative humidity: extended stability at elevated relative humidity
  Weight loss upon desorption: approximately 0.7%
  Hygroscopicity: low hygroscopicity
[1]; 2 days, approximately 95% RH
  Deliquescence at approximately 95% RH: did not deliquesce
[1]; from 5 to 95% relative humidity
  Weight gain on sorption: Approximately 0.9%
[1]; listed as chloride salt
  Hygroscopicity: non-hygroscopic
[1]; listed as hydrochloride salt
  Hygroscopicity: low hygroscopicity; also recorded: non-hygroscopic
[2]
  solubility: < 1 mg/mL
[3]; RU486-treated mice
  Effect on time to delivery: increase in time to delivery compared to vehicle
[3]; RU486-treated mice, nifedipine 5 mg/kg oral, compound III 100 mg/kg oral, alone or combined
  Time to delivery: 23.70 ± 0.60 h
LPS-induced parturition
  Effect on fractional viability of offspring: dose-dependent increase in the fractional viability of offspring
LPS-induced parturition; compound III 100 mg/kg oral
  Fractional viability of offspring: 69.41%±15.76%
LPS-induced parturition; [4]
  Fractional viability of offspring: 57.90%±14.89%
  Time to delivery: 23.98 ± 0.66 h

## CC#C[C@]1(O)CC[C@H]2[C@@H]3CCC4=CC(=O)CCC4=C3[C@@H](c3ccc(N(C)C)cc3)C[C@@]21C [RU486, mifepristone]
[3]; RU486 2.5 mg/kg s.c. at gestational age 17 days
  Mean delivery time following induction: 21 ± 1.00 h
[3]; female, CD-1, mouse, in vivo, 2.5 mg/kg
  Mice excluded due to death or sacrifice during the study: 3%
[3]; inducer alone
  Pups delivered alive: 96%

## CCOc1ccc(C[C@H]2NC(=O)CCSSC[C@@H](C(=O)N3CCC[C@H]3C(=O)N[C@@H](CCCN)C(=O)NCC(N)=O)NC(=O)[C@H](CC(N)=O)NC(=O)[C@H]([C@@H](C)O)NC(=O)[C@H]([C@@H](C)CC)NC2=O)cc1 [atosiban, reference compound] ([Mpa][dY](Et)ITNCP[Orn]G-NH2; disulfide 1-6)
LPS-induced parturition
  Effect on time to delivery: increase in time to delivery
LPS-induced parturition; atosiban 300 mg/kg s.c., compound III 100 mg/kg oral, alone or combined
  Time to delivery: 28.41 ± 2.99 h

## COC(=O)C1=C(C)NC(C)=C(C(=O)OC)C1c1ccccc1[N+](=O)[O-] [nifedipine, reference compound]
LPS-induced parturition; [4]
  Fractional viability of offspring: 90.39%±5.34%
